Measured values taken from ChEMBL document CHEMBL5550094, “Design, synthesis and anti-necroptosis activity of fused heterocyclic MLKL inhibitors” (Bioorg Med Chem, 2024).
Activity calls are given as the source filed them. The rule behind the calls is not given here.

Legend:
HT-29 [1] = assay: Anti-necroptosis activity against TNFalpha/Smac mimetic/Z-VAD-fmk-induced human HT-29 cells by CellTiter luminescence cell viability assay; type: functional, cell-based
HT-29 [2] = assay: Anti-necroptosis activity against TNFalpha/Smac mimetic/Z-VAD-fmk-induced human HT-29 cells measured after 24 hrs by CellTiter-Glo assay; type: functional, cell-based; settings: HT-29, 24 h
[3] = Anti-necroptosis activity against TNF-alpha induced human Jurkat-FADD-/- cells pretreated for 30 mins followed by TNF-alpha addition and further incubated overnight by CellTiter-Glo 2.0 assay; type: functional, cell-based
[4] = target: T1, Receptor-interacting serine/threonine-protein kinase 3 (Homo sapiens, UniProt Q9Y572); assay: Inhibition of RIPK3 phosphorylation in TNFalpha/Smac mimetic/Z-VAD-fmk-induced human HT-29 cells at 2 uM measured after 6 hrs by Western blot analysis; type: cell-based
Target sequence in this assay (Q9Y572 whole entry, looked up, the tested form may be a part): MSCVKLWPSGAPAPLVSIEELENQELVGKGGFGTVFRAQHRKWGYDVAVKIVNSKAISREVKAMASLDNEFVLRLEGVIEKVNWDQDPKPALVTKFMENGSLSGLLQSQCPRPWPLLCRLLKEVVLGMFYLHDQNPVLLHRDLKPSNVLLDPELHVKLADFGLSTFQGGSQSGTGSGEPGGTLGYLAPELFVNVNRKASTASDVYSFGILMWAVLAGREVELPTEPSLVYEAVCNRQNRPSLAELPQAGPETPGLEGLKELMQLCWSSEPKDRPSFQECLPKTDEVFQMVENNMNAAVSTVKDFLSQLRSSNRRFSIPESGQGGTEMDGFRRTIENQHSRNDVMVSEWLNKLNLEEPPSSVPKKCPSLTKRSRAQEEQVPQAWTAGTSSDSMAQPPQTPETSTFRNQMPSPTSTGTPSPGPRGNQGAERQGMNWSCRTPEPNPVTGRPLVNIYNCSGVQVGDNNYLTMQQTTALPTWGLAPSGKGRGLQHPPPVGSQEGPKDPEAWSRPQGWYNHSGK

[5] = target: T2, Mixed lineage kinase domain-like protein (Homo sapiens) (UniProt Q8NB16); assay: Inhibition of MLKL phosphorylation in TNFalpha/Smac mimetic/Z-VAD-fmk-induced human HT-29 cells at 2 uM measured after 6 hrs by Western blot analysis; type: cell-based
T2 sequence (whole entry): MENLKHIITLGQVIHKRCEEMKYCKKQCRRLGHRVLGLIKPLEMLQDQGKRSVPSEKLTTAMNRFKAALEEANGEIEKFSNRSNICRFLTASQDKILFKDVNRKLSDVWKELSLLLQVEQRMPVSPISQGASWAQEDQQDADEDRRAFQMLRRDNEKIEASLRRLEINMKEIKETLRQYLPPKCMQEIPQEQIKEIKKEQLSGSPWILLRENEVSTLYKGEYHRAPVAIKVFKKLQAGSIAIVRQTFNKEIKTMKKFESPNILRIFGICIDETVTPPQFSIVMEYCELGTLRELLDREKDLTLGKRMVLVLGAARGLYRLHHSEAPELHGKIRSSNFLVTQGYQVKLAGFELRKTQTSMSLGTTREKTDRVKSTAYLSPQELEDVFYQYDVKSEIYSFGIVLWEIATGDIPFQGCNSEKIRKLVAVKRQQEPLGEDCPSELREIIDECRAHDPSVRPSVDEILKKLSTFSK

[6] = target: T2, Mixed lineage kinase domain-like protein (Homo sapiens); assay: Covalent inhibition of MLKL in TNFalpha/Smac mimetic/Z-VAD-fmk-induced human HT-29 cells assessed as inhibition of necroptosis pretreated for 5 mins followed by washout and further treated with TNFalpha/Smac mimetic/Z-VAD-fmk and measured after 8 hrs by CellTiter luminescence cell viability assay; type: cell-based
L929 = assay: Anti-necroptosis activity against TNF-alpha/Z-VAD-FMK induced mouse L929 cells at 20 uM; type: functional, cell-based
[7] = target: T2, Mixed lineage kinase domain-like protein (Homo sapiens); assay: Covalent inhibition of MLKL in TNFalpha/Smac mimetic/Z-VAD-fmk-induced human HT-29 cells assessed as inhibition of necroptosis pretreated for 3 hrs followed by washout and further treated with TNFalpha/Smac mimetic/Z-VAD-fmk and measured after 8 hrs by CellTiter luminescence cell viability assay; type: cell-based
[8] = target: T2, Mixed lineage kinase domain-like protein (Homo sapiens); assay: Covalent inhibition of MLKL in TNFalpha/Smac mimetic/Z-VAD-fmk-induced human HT-29 cells assessed as inhibition of necroptosis pretreated for 1 hrs followed by washout and further treated with TNFalpha/Smac mimetic/Z-VAD-fmk and measured after 8 hrs by CellTiter luminescence cell viability assay; type: cell-based
[9] = target: T1, Receptor-interacting serine/threonine-protein kinase 3; assay: Binding affinity to RIPK3 (unknown origin) assessed as dissociation constant by displacement assay
Target sequence in this assay (Q9Y572 whole entry, the tested form may be a part): as the sequence (Q9Y572 whole entry, looked up, the tested form may be a part) above

[10] = target: T3, Receptor-interacting serine/threonine-protein kinase 1 (Homo sapiens, UniProt Q13546); assay: Binding affinity to RIPK1 (unknown origin) assessed as dissociation constant by displacement assay
T3 sequence (Q13546 whole entry): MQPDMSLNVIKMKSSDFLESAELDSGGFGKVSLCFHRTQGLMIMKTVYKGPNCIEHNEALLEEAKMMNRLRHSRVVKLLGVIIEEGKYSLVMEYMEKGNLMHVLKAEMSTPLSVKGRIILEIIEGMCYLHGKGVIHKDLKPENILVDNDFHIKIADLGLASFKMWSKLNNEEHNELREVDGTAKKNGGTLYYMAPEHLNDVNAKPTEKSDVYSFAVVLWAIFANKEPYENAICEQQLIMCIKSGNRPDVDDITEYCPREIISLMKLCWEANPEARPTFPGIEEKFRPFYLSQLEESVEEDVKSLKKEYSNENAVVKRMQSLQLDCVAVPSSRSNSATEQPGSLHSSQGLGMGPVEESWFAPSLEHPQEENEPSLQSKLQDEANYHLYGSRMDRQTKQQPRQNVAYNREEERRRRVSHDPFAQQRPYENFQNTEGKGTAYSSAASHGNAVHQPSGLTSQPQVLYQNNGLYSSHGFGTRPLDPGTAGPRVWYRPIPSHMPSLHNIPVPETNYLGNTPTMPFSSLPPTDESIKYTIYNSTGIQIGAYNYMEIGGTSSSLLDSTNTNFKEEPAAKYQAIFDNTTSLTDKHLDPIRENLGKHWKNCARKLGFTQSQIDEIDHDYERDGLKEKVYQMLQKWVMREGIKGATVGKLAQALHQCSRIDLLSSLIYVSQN

SMILES | EC50 (HT-29 [1]) [nM] | further results
O=C(/C=C/c1ccc([N+](=O)[O-])s1)Nc1ccc(S(=O)(=O)Nc2nc3ccccc3s2)cc1 | 1510 | –
COc1nccnc1NS(=O)(=O)c1ccc(NC(=O)/C=C/c2cccs2)cc1 | – | EC50 (HT-29 [2]): > 20 µM
COc1nccnc1NS(=O)(=O)c1ccc(NC(=O)CCc2ccc([N+](=O)[O-])s2)cc1 | – | EC50 (HT-29 [2]): > 20 µM
COc1ccc2nc(NS(=O)(=O)c3ccc(NC(=O)/C=C/c4ccc([N+](=O)[O-])s4)cc3)sc2c1 | 5080 | –
O=C(/C=C/c1ccc([N+](=O)[O-])s1)Nc1ccc(S(=O)(=O)Nc2ccnc3ccccc23)cc1 | 579 | –
O=C(/C=C/c1ccc([N+](=O)[O-])s1)Nc1ccc(S(=O)(=O)Nc2nc3ccccc3o2)cc1 | 1570 | –
O=C(/C=C/c1ccc([N+](=O)[O-])s1)Nc1ccc(S(=O)(=O)Nc2nc3ccc(OC(F)(F)F)cc3s2)cc1 | > 20000 | –
O=C(/C=C/c1ccc([N+](=O)[O-])s1)Nc1ccc(S(=O)(=O)Nc2cnc3ccccc3c2)cc1 | 406 | –
O=C(/C=C/c1ccc([N+](=O)[O-])s1)Nc1ccc(S(=O)(=O)Nc2nc3ccc(C(F)(F)F)cc3s2)cc1 | > 20000 | –
O=C(/C=C/c1ccc([N+](=O)[O-])s1)Nc1ccc(S(=O)(=O)Nc2ccc3ccccc3n2)cc1 | 329 | –
O=C(/C=C/c1ccc([N+](=O)[O-])s1)Nc1ccc(S(=O)(=O)Nc2nc3cc(Br)ccc3s2)cc1 | > 20000 | –
C[C@@H](Oc1cc(-c2cnn(C3CCNCC3)c2)cnc1N)c1c(Cl)ccc(F)c1Cl [CRIZOTINIB] | – | IC50 [3]: > 40 µM
Cn1c(NS(=O)(=O)c2ccc(NC(=O)/C=C/c3ccc([N+](=O)[O-])s3)cc2)nc2ccccc21 | 478 | –
O=C(/C=C/c1ccc([N+](=O)[O-])s1)Nc1ccc(S(=O)(=O)Nc2nc3ccc(Br)cc3s2)cc1 | > 20000 | –
Cc1cccc2sc(NS(=O)(=O)c3ccc(NC(=O)/C=C/c4ccc([N+](=O)[O-])s4)cc3)nc12 | 2750 | –
O=C(/C=C/c1ccc([N+](=O)[O-])s1)Nc1ccc(S(=O)(=O)Nc2ccc3nccnc3c2)cc1 | 480 | –
O=C(/C=C/c1ccc([N+](=O)[O-])s1)Nc1ccc(S(=O)(=O)Nc2nc3ccc(F)cc3s2)cc1 | 5150 | –
O=C(/C=C/c1ccc([N+](=O)[O-])s1)Nc1ccc(S(=O)(=O)Nc2nc3c(Br)cccc3s2)cc1 | 7350 | –
COc1ccc2sc(NS(=O)(=O)c3ccc(NC(=O)/C=C/c4ccc([N+](=O)[O-])s4)cc3)nc2c1 | 7030 | –

SMILES | EC50 (HT-29 [1]) [nM] | further results
COc1nccnc1NS(=O)(=O)c1ccc(NC(=O)/C=C/c2ccc([N+](=O)[O-])s2)cc1 | – | inhibition [4]: inactive; inhibition [5]: inactive; EC50 (HT-29 [2]): 0.447 µM
O=C(/C=C/c1ccc([N+](=O)[O-])s1)Nc1ccc(S(=O)(=O)Nc2nc3c(F)cccc3s2)cc1 | 7460 | –
COc1cccc2sc(NS(=O)(=O)c3ccc(NC(=O)/C=C/c4ccc([N+](=O)[O-])s4)cc3)nc12 | 596 | inhibition [6]: inactive; inhibition [4]: inactive; Activity (L929): inactive; inhibition [7]: Active; inhibition [5]: inactive; inhibition [8]: Active
O=C(/C=C/c1ccc([N+](=O)[O-])s1)Nc1ccc(S(=O)(=O)Nc2ncc3ccccc3n2)cc1 | 148 | inhibition [6]: inactive; inhibition [4]: inactive; Activity (L929): inactive; inhibition [7]: Active; inhibition [5]: inactive; inhibition [8]: Active
COc1nccnc1NS(=O)(=O)c1ccc(NC(=O)CCc2cccs2)cc1 | – | EC50 (HT-29 [2]): > 20 µM
O=C(/C=C/c1ccc([N+](=O)[O-])s1)Nc1ccc(S(=O)(=O)Nc2cnc3ccccc3n2)cc1 | 384 | –
Nc1nccnc1C(=O)O[C@@H](C(=O)Nc1ccc(F)cc1)c1ccccc1 | – | Kd [9]: > 30 µM; Kd [10]: > 30 µM; IC50 [3]: > 40 µM
O=C(/C=C/c1ccc([N+](=O)[O-])s1)Nc1ccc(S(=O)(=O)Nc2nc3c(Cl)cccc3s2)cc1 | 6230 | –
O=C(/C=C/c1ccc([N+](=O)[O-])s1)Nc1ccc(S(=O)(=O)Nc2cc3ccccc3cn2)cc1 | 621 | –
Cc1ccc2nc(NS(=O)(=O)c3ccc(NC(=O)/C=C/c4ccc([N+](=O)[O-])s4)cc3)sc2c1 | 2910 | –
O=C(/C=C/c1ccc([N+](=O)[O-])s1)Nc1ccc(S(=O)(=O)Nc2cncc3ccccc23)cc1 | 427 | –
COc1nccnc1NS(=O)(=O)c1ccc(NC(=O)/C=C/c2ccc([N+](=O)[O-])o2)cc1 | 6410 | –
O=C(/C=C/c1ccc([N+](=O)[O-])s1)Nc1ccc(S(=O)(=O)Nc2ncnc3ccccc23)cc1 | 526 | –
O=C(/C=C/c1ccc([N+](=O)[O-])s1)Nc1ccc(S(=O)(=O)Nc2nc3cc(F)ccc3s2)cc1 | 6750 | –
O=C(/C=C/c1ccc([N+](=O)[O-])s1)Nc1ccc(S(=O)(=O)Nc2nc3ccc(Cl)cc3s2)cc1 | 13800 | –
O=C(/C=C/c1ccc([N+](=O)[O-])s1)Nc1ccc(S(=O)(=O)Nc2nccc3ccccc23)cc1 | 734 | –
O=C(/C=C/c1ccc([N+](=O)[O-])s1)Nc1ccc(S(=O)(=O)Nc2nc3cc(Cl)ccc3s2)cc1 | 16200 | –
Cc1ccc2sc(NS(=O)(=O)c3ccc(NC(=O)/C=C/c4ccc([N+](=O)[O-])s4)cc3)nc2c1 | 2580 | –
